Like-named read-outs stand apart in the source and are kept apart here.
Assays:
Type in all cases: cell-based
kinases in BCWM.1 cells [1] = molecular target: kinases in BCWM.1 cells (Homo sapiens, UniProt P15735); experiment: KINATIV assay of compounds I-3 and I-9, lysate directly labeled with ATP-biotin probe (no GF); conditions: PHKg2; Lys1; 1 μM, 90 min; no GF
Protocol: (§1) The cells were harvested and lysed. […] Bound kinases were identified and quantitated by ACTIVX as described in Patricelli et al., Biochemistry, 2007, 46(2): 350-358. The compounds were tested in duplicates against duplicate or quadruplicate control samples.

kinases in BCWM.1 cells [2] = molecular target: kinases in BCWM.1 cells (Homo sapiens, UniProt P29597); experiment: as above; conditions: TYK2 domain2; Activation Loop; 1 μM, 90 min; no GF
Protocol: as §1

kinases in BCWM.1 cells [3] = molecular target: T1, kinases in BCWM.1 cells (Homo sapiens, UniProt Q16539); experiment: as above; conditions: p38a, 1 μM, 90 min, no GF
Protocol: as §1

kinases in BCWM.1 cells [4] = molecular target: T2, kinases in BCWM.1 cells (Homo sapiens, UniProt Q96PY6); experiment: as above; conditions: NEK1; Lys2; 1 μM, 90 min; no GF
Protocol: as §1

kinases in BCWM.1 cells [5] = molecular target: T3, kinases in BCWM.1 cells (Homo sapiens, UniProt P51812); experiment: as above; conditions: Lys2, 1 μM, 90 min, no GF
Protocol: as §1

kinases in BCWM.1 cells [6] = molecular target: kinases in BCWM.1 cells (Homo sapiens, UniProt P43405); conditions: SYK; Activation Loop; 1 μM, 90 min; GF
Protocol: as §1

kinases in BCWM.1 cells [7] = molecular target: kinases in BCWM.1 cells (Homo sapiens, UniProt Q96S38); conditions: RSKL1; ATP; 1 μM, 90 min; GF
Protocol: as §1

kinases in BCWM.1 cells [8] = molecular target: kinases in BCWM.1 cells (Homo sapiens, UniProt Q9UHD2); conditions: TBK1; Lys1; 1 μM, 90 min; GF
Protocol: as §1

kinases in BCWM.1 cells [9] = molecular target: T1, kinases in BCWM.1 cells; conditions: p38a, 1 μM, 90 min, GF
Protocol: as §1

kinases in BCWM.1 cells [10] = molecular target: kinases in BCWM.1 cells (Homo sapiens, UniProt O43318); conditions: TAK1; Lys2; 1 μM, 90 min; GF
Protocol: as §1

kinases in BCWM.1 cells [11] = molecular target: kinases in BCWM.1 cells (Homo sapiens, UniProt P42680); conditions: TEC; Activation Loop; 1 μM, 90 min; GF
Protocol: as §1

kinases in BCWM.1 cells [12] = molecular target: kinases in BCWM.1 cells (Homo sapiens, UniProt Q15418); conditions: Lys2, 1 μM, 90 min, GF
Protocol: as §1

kinases in BCWM.1 cells [13] = molecular target: kinases in BCWM.1 cells (Homo sapiens, UniProt Q9Y572); conditions: RIPK3; Lys2; 1 μM, 90 min; GF
Protocol: as §1

kinases in BCWM.1 cells [14] = molecular target: kinases in BCWM.1 cells (Homo sapiens, UniProt Q96SB4); conditions: SRPK1; Lys2; 1 μM, 90 min; GF
Protocol: as §1

kinases in BCWM.1 cells [15] = molecular target: kinases in BCWM.1 cells (Homo sapiens, UniProt Q15208); conditions: NDR1; Lys2; 1 μM, 90 min; GF
Protocol: as §1

kinases in BCWM.1 cells [16] = molecular target: kinases in BCWM.1 cells (Homo sapiens, UniProt Q96BR1); conditions: SGK3; Lys1; 1 μM, 90 min; GF
Protocol: as §1

kinases in BCWM.1 cells [17] = molecular target: kinases in BCWM.1 cells (Homo sapiens, UniProt Q86UE8); conditions: TLK2; Lys2; 1 μM, 90 min; GF
Protocol: as §1

kinases in BCWM.1 cells [18] = molecular target: kinases in BCWM.1 cells (Homo sapiens, UniProt Q9NRH2); conditions: SNRK; Lys2; 1 μM, 90 min; GF
Protocol: as §1

kinases in BCWM.1 cells [19] = molecular target: T2, kinases in BCWM.1 cells; conditions: NEK1; Lys2; 1 μM, 90 min; GF
Protocol: as §1

kinases in BCWM.1 cells [20] = molecular target: kinases in BCWM.1 cells (Homo sapiens, UniProt Q9NZJ5); conditions: PEK; Lys2; 1 μM, 90 min; GF
Protocol: as §1

kinases in BCWM.1 cells [21] = molecular target: kinases in BCWM.1 cells (Homo sapiens, UniProt Q9UL54); conditions: TAO2; Lys2; 1 μM, 90 min; GF
Protocol: as §1

kinases in BCWM.1 cells [22] = molecular target: kinases in BCWM.1 cells (Homo sapiens, UniProt P30291); conditions: Wee1; Lys2; 1 μM, 90 min; GF
Protocol: as §1

kinases in BCWM.1 cells [23] = molecular target: T3, kinases in BCWM.1 cells; conditions: Lys2, 1 μM, 90 min, GF
Protocol: as §1

kinases in BCWM.1 cells [24] = molecular target: kinases in BCWM.1 cells (Homo sapiens, UniProt Q8TBX8); conditions: PIP4K2C; ATP; 1 μM, 90 min; GF
Protocol: as §1

kinases in BCWM.1 cells [25] = molecular target: kinases in BCWM.1 cells (Homo sapiens, UniProt P48736); conditions: PIK3CG; ATP; 1 μM, 90 min; GF
Protocol: as §1

kinases in BCWM.1 cells [26] = molecular target: kinases in BCWM.1 cells (Homo sapiens, UniProt Q86Y07); conditions: VRK2; Lys2; 1 μM, 90 min; GF
Protocol: as §1

kinases in BCWM.1 cells [27] = molecular target: kinases in BCWM.1 cells (Homo sapiens, UniProt Q8TDX7); conditions: NEK7; Lys1; 1 μM, 90 min; GF
Protocol: as §1

kinases in BCWM.1 cells [28] = molecular target: kinases in BCWM.1 cells (Homo sapiens, UniProt Q9UBS0); conditions: p70S6Kb; Lys2; 1 μM, 90 min; GF
Protocol: as §1

T1 sequence (Q16539 2-360 limits assumed): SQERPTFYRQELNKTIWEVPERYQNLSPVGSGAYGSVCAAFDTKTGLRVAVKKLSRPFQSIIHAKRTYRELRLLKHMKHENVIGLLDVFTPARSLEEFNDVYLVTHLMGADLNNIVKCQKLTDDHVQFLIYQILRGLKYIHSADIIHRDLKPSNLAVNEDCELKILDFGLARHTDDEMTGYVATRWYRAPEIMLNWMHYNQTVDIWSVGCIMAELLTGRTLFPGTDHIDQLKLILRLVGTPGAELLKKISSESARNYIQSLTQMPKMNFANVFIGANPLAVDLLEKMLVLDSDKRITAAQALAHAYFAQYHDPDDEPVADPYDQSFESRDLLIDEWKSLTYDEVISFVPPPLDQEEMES
Chain of kinases in BCWM.1 cells (Homo sapiens, UniProt Q15208) (Q15208 2-465 limits assumed): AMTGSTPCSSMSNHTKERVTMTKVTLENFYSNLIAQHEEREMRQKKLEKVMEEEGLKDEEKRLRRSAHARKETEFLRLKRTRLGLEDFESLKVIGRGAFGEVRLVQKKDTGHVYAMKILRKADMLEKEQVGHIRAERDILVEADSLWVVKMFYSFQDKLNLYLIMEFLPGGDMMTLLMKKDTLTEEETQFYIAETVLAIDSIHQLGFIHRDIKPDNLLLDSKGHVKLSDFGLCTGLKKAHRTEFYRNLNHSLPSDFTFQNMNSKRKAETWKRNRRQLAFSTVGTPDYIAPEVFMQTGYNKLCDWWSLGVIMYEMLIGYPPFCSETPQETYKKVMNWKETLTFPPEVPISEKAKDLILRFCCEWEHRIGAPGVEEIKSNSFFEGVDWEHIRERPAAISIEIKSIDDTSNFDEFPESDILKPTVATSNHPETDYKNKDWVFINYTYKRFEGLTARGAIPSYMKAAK
Chain of kinases in BCWM.1 cells (Homo sapiens, UniProt Q9NZJ5) (Q9NZJ5 30-1116 limits assumed): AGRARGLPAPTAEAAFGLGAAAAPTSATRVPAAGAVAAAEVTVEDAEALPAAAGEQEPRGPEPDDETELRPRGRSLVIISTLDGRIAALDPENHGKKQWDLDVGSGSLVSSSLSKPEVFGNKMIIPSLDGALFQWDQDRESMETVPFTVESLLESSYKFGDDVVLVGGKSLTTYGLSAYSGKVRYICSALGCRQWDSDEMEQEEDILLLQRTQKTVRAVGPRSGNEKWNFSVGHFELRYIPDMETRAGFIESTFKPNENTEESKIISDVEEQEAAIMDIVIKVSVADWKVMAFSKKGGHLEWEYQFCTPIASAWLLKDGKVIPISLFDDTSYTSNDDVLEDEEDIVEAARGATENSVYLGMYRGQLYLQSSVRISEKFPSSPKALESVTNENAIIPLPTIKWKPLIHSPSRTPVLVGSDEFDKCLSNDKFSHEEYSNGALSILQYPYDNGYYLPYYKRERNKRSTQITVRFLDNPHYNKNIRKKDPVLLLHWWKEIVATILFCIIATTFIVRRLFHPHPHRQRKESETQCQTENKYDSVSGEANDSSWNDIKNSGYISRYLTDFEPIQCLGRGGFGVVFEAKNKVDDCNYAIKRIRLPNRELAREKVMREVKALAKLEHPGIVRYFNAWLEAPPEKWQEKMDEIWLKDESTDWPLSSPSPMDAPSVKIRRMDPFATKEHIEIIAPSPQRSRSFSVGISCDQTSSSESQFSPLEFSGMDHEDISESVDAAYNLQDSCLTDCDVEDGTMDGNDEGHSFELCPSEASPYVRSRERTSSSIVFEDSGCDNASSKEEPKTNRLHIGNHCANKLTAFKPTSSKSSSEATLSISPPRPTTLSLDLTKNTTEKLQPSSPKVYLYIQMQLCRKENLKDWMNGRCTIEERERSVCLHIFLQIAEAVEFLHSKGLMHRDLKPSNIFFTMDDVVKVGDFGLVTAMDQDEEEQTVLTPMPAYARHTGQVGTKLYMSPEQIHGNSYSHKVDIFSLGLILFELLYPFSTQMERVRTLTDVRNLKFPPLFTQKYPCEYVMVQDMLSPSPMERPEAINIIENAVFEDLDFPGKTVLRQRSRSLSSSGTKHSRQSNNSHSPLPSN
Chain of kinases in BCWM.1 cells (Homo sapiens, UniProt Q8TBX8) (Q8TBX8 2-421 limits assumed): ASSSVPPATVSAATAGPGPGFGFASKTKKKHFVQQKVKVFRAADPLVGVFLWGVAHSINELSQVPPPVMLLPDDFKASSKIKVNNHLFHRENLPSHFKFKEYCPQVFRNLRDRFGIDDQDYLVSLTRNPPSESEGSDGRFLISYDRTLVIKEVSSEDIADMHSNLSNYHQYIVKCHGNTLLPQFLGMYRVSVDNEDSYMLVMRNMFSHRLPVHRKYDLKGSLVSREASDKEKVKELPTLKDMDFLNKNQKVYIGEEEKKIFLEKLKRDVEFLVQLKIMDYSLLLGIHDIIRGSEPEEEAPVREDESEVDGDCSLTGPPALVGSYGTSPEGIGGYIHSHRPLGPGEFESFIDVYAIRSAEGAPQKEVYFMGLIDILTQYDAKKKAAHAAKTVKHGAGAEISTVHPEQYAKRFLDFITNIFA

Row | SMILES | % change of MS signal compared to control sample (kinases in BCWM.1 cells [1]) | % change of MS signal compared to control sample (kinases in BCWM.1 cells [2]) | % change of MS signal compared to control sample (kinases in BCWM.1 cells [3]; Lys2) | % change of MS signal compared to control sample (kinases in BCWM.1 cells [3]; Protein Kinase Domain) | % change of MS signal compared to control sample (kinases in BCWM.1 cells [4]) | % change of MS signal compared to control sample (kinases in BCWM.1 cells [5]; RSK2 domain1) | % change of MS signal compared to control sample (kinases in BCWM.1 cells [5]; RSK2 domain2) | % change of MS signal compared to control sample (kinases in BCWM.1 cells [6]) | % change of MS signal compared to control sample (kinases in BCWM.1 cells [7]) | % change of MS signal compared to control sample (kinases in BCWM.1 cells [8]) | % change of MS signal compared to control sample (kinases in BCWM.1 cells [9]; Lys2) | % change of MS signal compared to control sample (kinases in BCWM.1 cells [9]; Protein Kinase Domain) | % change of MS signal compared to control sample (kinases in BCWM.1 cells [10]) | % change of MS signal compared to control sample (kinases in BCWM.1 cells [11]) | % change of MS signal compared to control sample (kinases in BCWM.1 cells [12]; RSK1 domain1) | % change of MS signal compared to control sample (kinases in BCWM.1 cells [12]; RSK1 domain2) | % change of MS signal compared to control sample (kinases in BCWM.1 cells [13]) | % change of MS signal compared to control sample (kinases in BCWM.1 cells [14]) | % change of MS signal compared to control sample (kinases in BCWM.1 cells [15]) | % change of MS signal compared to control sample (kinases in BCWM.1 cells [16]) | also measured
1 | C=CC(=O)N1CC[C@H](Nc2nccc(Nc3ncc(C(=O)Nc4c(C)cccc4C)s3)n2)C1 [Example I-3] | −31.2% | −10.1% | 43.5% | 32.6% | 7.4% | −2% | −10.2% | −1.1% | −25.8% | −1.6% | 70% | 67.9% | −2.5% | >91% | −16.9% | −20.8% | 22% | −16.8% | −5.5% | −18.5% | % change of MS signal compared to control sample (kinases in BCWM.1 cells [17]): 4.7%; % change of MS signal compared to control sample (kinases in BCWM.1 cells [18]): 40.2%; % change of MS signal compared to control sample (kinases in BCWM.1 cells [19]): −7.6%; % change of MS signal compared to control sample (kinases in BCWM.1 cells [20]): 6.4%; % change of MS signal compared to control sample (kinases in BCWM.1 cells [21]): 8%; % change of MS signal compared to control sample (kinases in BCWM.1 cells [22]): −6.5%; % change of MS signal compared to control sample (kinases in BCWM.1 cells [23]; RSK2 domain1): −15.5%; % change of MS signal compared to control sample (kinases in BCWM.1 cells [23]; RSK2 domain2): −16.5%; % change of MS signal compared to control sample (kinases in BCWM.1 cells [24]): 27%; % change of MS signal compared to control sample (kinases in BCWM.1 cells [25]): −3.4%; % change of MS signal compared to control sample (kinases in BCWM.1 cells [26]): 5.7%; % change of MS signal compared to control sample (kinases in BCWM.1 cells [27]): −14.7%; % change of MS signal compared to control sample (kinases in BCWM.1 cells [28]): 6.8%
2 | CCC(=O)N1CC[C@H](Nc2nccc(Nc3ncc(C(=O)Nc4c(C)cccc4C)s3)n2)C1 [Example I-9] | 12.5% | −17.7% | −7.8% | −2.9% | −3.7% | −5.6% | −9.7% | −6.1% | 1.8% | 10.8% | 9.8% | 8.7% | 1% | 40.8% | −5.1% | −4.1% | −27% | −0.4% | 2.8% | −1.1% | % change of MS signal compared to control sample (kinases in BCWM.1 cells [17]): −1.9%; % change of MS signal compared to control sample (kinases in BCWM.1 cells [18]): 30.1%; % change of MS signal compared to control sample (kinases in BCWM.1 cells [19]): 4.6%; % change of MS signal compared to control sample (kinases in BCWM.1 cells [20]): 15.4%; % change of MS signal compared to control sample (kinases in BCWM.1 cells [21]): 11.5%; % change of MS signal compared to control sample (kinases in BCWM.1 cells [22]): 8.6%; % change of MS signal compared to control sample (kinases in BCWM.1 cells [23]; RSK2 domain1): −8.4%; % change of MS signal compared to control sample (kinases in BCWM.1 cells [23]; RSK2 domain2): 1.6%; % change of MS signal compared to control sample (kinases in BCWM.1 cells [24]): −3.9%; % change of MS signal compared to control sample (kinases in BCWM.1 cells [25]): −9.6%; % change of MS signal compared to control sample (kinases in BCWM.1 cells [26]): −1.6%; % change of MS signal compared to control sample (kinases in BCWM.1 cells [27]): 8%; % change of MS signal compared to control sample (kinases in BCWM.1 cells [28]): 3.1%

Reference: US10844077B2, “Thiazolyl-containing compounds for treating proliferative diseases” (Dana-Farber Cancer Institute, Inc., priority 2014, dated 2020)
